Earlier results, collected in patent US11648313B2, “Multimodal therapy for cancer cell destruction” (Southeast Missouri State University, priority 2015, dated 2023).

Columns and labels:
FAK = FAK (Homo sapiens, UniProt Q05397)
NF-kB = settings: neuroblastoma cells

Chain of FAK (Q05397 whole entry): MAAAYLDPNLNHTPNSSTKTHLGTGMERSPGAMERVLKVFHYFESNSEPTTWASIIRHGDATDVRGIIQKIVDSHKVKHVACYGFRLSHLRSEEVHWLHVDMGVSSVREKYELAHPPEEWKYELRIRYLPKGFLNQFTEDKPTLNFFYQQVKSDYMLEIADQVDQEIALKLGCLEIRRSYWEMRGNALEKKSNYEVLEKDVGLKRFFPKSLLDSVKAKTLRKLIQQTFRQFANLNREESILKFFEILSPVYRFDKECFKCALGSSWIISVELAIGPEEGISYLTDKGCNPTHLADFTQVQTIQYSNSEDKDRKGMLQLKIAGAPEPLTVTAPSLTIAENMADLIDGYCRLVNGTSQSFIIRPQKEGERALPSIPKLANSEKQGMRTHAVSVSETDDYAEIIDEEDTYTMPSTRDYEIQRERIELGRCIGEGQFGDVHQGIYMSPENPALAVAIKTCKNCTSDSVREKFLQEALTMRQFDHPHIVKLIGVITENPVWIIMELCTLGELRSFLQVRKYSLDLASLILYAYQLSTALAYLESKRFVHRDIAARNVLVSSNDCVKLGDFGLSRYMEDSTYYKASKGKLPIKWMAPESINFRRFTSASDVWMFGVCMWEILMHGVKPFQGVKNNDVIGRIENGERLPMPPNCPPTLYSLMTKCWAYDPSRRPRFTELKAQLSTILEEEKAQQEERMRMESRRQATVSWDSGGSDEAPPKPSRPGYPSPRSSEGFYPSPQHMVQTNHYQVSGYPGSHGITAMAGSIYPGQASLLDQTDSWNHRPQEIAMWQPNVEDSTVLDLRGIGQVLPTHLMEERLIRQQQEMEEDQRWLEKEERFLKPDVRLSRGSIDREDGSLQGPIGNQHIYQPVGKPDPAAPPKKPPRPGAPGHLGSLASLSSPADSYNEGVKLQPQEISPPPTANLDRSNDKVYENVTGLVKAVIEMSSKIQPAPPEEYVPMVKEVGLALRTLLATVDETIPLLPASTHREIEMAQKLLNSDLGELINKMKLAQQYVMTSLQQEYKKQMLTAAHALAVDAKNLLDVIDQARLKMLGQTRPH

SMILES	effect of FAK inhibition on cell survival, apoptosis, cell cycle (FAK)	water solubility	NF-kB activation (NF-kB)
Cl.Cl.Cl.Cl.Nc1cc(N)c(N)cc1N [Y15]	decreased cell survival, increased apoptosis, and G2 cell cycle arrest	adequate water solubility	–
COc1cc([C@@H]2c3cc4c(cc3[C@@H](O[C@@H]3O[C@@H]5CO[C@@H](C)O[C@H]5[C@H](O)[C@H]3O)[C@H]3COC(=O)[C@H]23)OCO4)cc(OC)c1O [VP16]	–	–	trigger NF-kB activation
COc1cccc2c1C(=O)c1c(O)c3c(c(O)c1C2=O)C[C@@](O)(C(=O)CO)C[C@@H]3O[C@H]1C[C@H](N)[C@H](O)[C@H](C)O1 [doxorubicin]	–	–	trigger NF-kB activation
CNC(=O)c1ccccc1Nc1nc(Nc2ccc(N3CCOCC3)cc2OC)ncc1Cl [NVP-TAE 226]	decreased cell survival, increased apoptosis, and G2 cell cycle arrest	adequate water solubility	–
